Data reported in US20260325561A1, “4'-SUBSTITUTED NUCLEOSIDES AND NUCLEOTIDES AS ANTIVIRAL AGENTS” (THE SCRIPPS RESEARCH INSTITUTE, priority 2023, published 2026).

Columns and labels:
YFV = assay: microbe, parasite or virus in culture; assay type: cell-based, YFV strain 17D; conditions: Yellow fever virus, HepG2, 24 h, read-out: YFV / HepG2 EC50
ZIKV = assay: microbe, parasite or virus in culture; assay type: cell-based, ZIKV MR766; conditions: Zika virus, HepG2, 24 h, read-out: ZIKV / HepG2 EC50
in vitro [1] = conditions: human, h1 hela cells
RSV A2 = assay: microbe, parasite or virus in culture; assay type: cell-based; conditions: human respiratory syncytial virus, HEp-2, 72 h, read-out: RSV A2 / Hep2 EC50
HRV 14 = assay: microbe, parasite or virus in culture; assay type: cell-based, Human Rhinovirus 14 strain 1059; conditions: Rhinovirus B, H1-HeLa, 48 h, read-out: HRV / H1 HeLa B 14 EC50
in vitro [2] = conditions: human, hela-ace2 cells
in vitro [3] = conditions: human, hepg2 cells
DENV-2 = assay: microbe, parasite or virus in culture; assay type: cell-based, DENV-2 16681; conditions: Dengue virus, DENV2, HepG2, 24 h, read-out: DENV-2 / HepG2 EC50
SARS-CoV-2 = assay: microbe, parasite or virus in culture; assay type: cell-based, SARS-CoV-2 strain USA-WA1/2020; conditions: Severe acute respiratory syndrome coronavirus 2, HeLa-ACE2, 24 h, read-out: SARS-CoV-2 / HeLa-ACE2 EC50
in vitro [4] = conditions: human, hep2 cells
in vitro [5] = conditions: human, mrc5 cells
HCMV = assay: HCMV/HFF antiviral assay; assay type: cell-based; conditions: Human betaherpesvirus 5, HFF
HRV 16 = assay: microbe, parasite or virus in culture; assay type: cell-based, Human Rhinovirus 16 strain 11757; conditions: Rhinovirus A, H1-HeLa, 48 h, read-out: HRV / H1 HeLa A16 EC50
Cytotoxicity, HFF = assay type: cell-based; conditions: human, hff cells; read-out: HCMV/HFF CC50
CHIKV = assay: microbe, parasite or virus in culture; assay type: cell-based, CHIKV strain 181/25; conditions: Chikungunya virus, HepG2, 24 h, read-out: CHIKV / HepG2 EC50
in vitro [6] = conditions: human, hct-8 cells
HCoV-OC43 = assay: microbe, parasite or virus in culture; assay type: cell-based, Human Coronavirus; conditions: Betacoronavirus 1, OC43, HCT-8, 48 h, read-out: HCoV-OC43/HCT-8 EC50
HCoV-229E = assay: microbe, parasite or virus in culture; assay type: cell-based; conditions: Human coronavirus 229E, MRC5, 120 h, read-out: HCoV-229E/MRC5 EC50

With OC[C@]1(F)O[C@@H](n2ccc3c(Cl)ncnc32)[C@H](O)[C@@H]1O [Example 5, (2R,3S,4R,5R)-5-(4-chloro-7H-pyrrolo[2,3-d]pyrimidin-7-yl)-2-fluoro-2-(hydroxymethyl)tetrahydrofuran-3,4-diol] as the compound, how does the EC50 (YFV) read?
Its EC50 is 1 to 10 µM.

What about the EC50 (ZIKV) of the same compound?
The EC50 was 1 to 10 µM.

What about the CC50 (in vitro [1]) of the same compound?
The CC50 was over 99 µM.

And the EC50 (RSV A2)?
The EC50 was over 10 µM.

What about the EC50 (HRV 14) of the same compound?
Its EC50 is 1 to 10 µM.

What about the CC50 at 24 h (in vitro [2]) of the same compound?
The CC50 at 24 h was over 99 µM.

And the CC50 at 72 h (in vitro [3])?
The CC50 at 72 h was over 99 µM.

And the EC50 (DENV-2)?
The EC50 was 0.1 to 1 µM.

What about the EC50 (SARS-CoV-2) of the same compound?
The EC50 was over 10 µM.

And the CC50 (in vitro [4])?
The CC50 was over 99 µM.

With OC[C@@]1(F)O[C@@H](n2ccc3c(F)ncnc32)[C@H](O)[C@@H]1O [Example 13, (2S,3S,4R,5R)-2-fluoro-5-(4-fluoro-7H-pyrrolo[2,3-d]pyrimidin-7-yl)-2-(hydroxymethyl)tetrahydrofuran-3,4-diol] as the compound, how does the CC50 (in vitro [5]) read?
The CC50 was over 99 µM.

What about the CC50 (in vitro [1]) of the same compound?
The CC50 was 10 to 99 µM.

What about the EC50 (HCMV) of the same compound?
The EC50 was over 10 µM.

And the EC50 (HRV 16)?
The EC50 was 0.1 to 1 µM.

What about the EC50 (RSV A2) of the same compound?
The EC50 was 0.1 to 1 µM.

And the EC50 (HRV 14)?
Its EC50 is 1 to 10 µM.

What about the CC50 (Cytotoxicity, HFF) of the same compound?
Its CC50 is 10 to 99 µM.

What about the CC50 at 24 h (in vitro [2]) of the same compound?
Its CC50 at 24 h is 10 to 99 µM.

And the CC50 at 72 h (in vitro [3])?
The CC50 at 72 h was 1 to 10 µM.

What about the EC50 (DENV-2) of the same compound?
Its EC50 is under 0.1 µM.

What about the EC50 (SARS-CoV-2) of the same compound?
The EC50 was 0.1 to 1 µM.

What about the CC50 (in vitro [4]) of the same compound?
The CC50 was 10 to 99 µM.

And the EC50 (CHIKV)?
Its EC50 is 0.1 to 1 µM.

And the CC50 (in vitro [6])?
Its CC50 is 10 to 99 µM.

And the EC50 (HCoV-OC43)?
Its EC50 is 1 to 10 µM.

And the EC50 (HCoV-229E)?
Its EC50 is over 10 µM.

With NC(=O)c1cn([C@@H]2O[C@](F)(CO)[C@@H](O)[C@H]2O)c2ncnc(N)c12 [Example 14, 4-amino-7-((2R,3R,4S,5S)-5-fluoro-3,4-dihydroxy-5-(hydroxymethyl)tetrahydrofuran-2-yl)-7H-pyrrolo[2,3-d]pyrimidine-5-carboxamide] as the compound, how does the CC50 (in vitro [5]) read?
Its CC50 is 1 to 10 µM.

What about the CC50 (in vitro [1]) of the same compound?
The CC50 was 1 to 10 µM.

And the EC50 (HCMV)?
The EC50 was 0.1 to 1 µM.

What about the EC50 (HRV 16) of the same compound?
Its EC50 is over 10 µM.

What about the EC50 (RSV A2) of the same compound?
Its EC50 is under 0.1 µM.

And the EC50 (HRV 14)?
The EC50 was over 10 µM.

What about the CC50 (Cytotoxicity, HFF) of the same compound?
The CC50 was 1 to 10 µM.

What about the CC50 at 24 h (in vitro [2]) of the same compound?
Its CC50 at 24 h is under 1 µM.

And the CC50 at 72 h (in vitro [3])?
The CC50 at 72 h was under 1 µM.

And the EC50 (DENV-2)?
The EC50 was under 0.1 µM.

What about the EC50 (SARS-CoV-2) of the same compound?
The EC50 was 0.1 to 1 µM.

And the CC50 (in vitro [4])?
Its CC50 is 1 to 10 µM.

What about the CC50 (in vitro [6]) of the same compound?
Its CC50 is 1 to 10 µM.

And the EC50 (HCoV-OC43)?
Its EC50 is 0.1 to 1 µM.

And the EC50 (HCoV-229E)?
Its EC50 is over 10 µM.

For Nc1ncnc2c1c(F)cn2[C@@H]1O[C@](F)(CO)[C@@H](O)[C@H]1O [Example 15, (2S,3S,4R,5R)-5-(4-amino-5-fluoro-7H-pyrrolo[2,3-d]pyrimidin-7-yl)-2-fluoro-2-(hydroxymethyl)tetrahydrofuran-3,4-diol], which CC50 (in vitro [5]) is on record?
Its CC50 is 1 to 10 µM.

And the CC50 (in vitro [1])?
The CC50 was under 1 µM.

What about the EC50 (HCMV) of the same compound?
Its EC50 is 1 to 10 µM.

What about the EC50 (HRV 16) of the same compound?
Its EC50 is under 0.1 µM.

And the EC50 (RSV A2)?
Its EC50 is over 10 µM.

And the EC50 (HRV 14)?
The EC50 was over 10 µM.

What about the CC50 (Cytotoxicity, HFF) of the same compound?
Its CC50 is 1 to 10 µM.

And the CC50 at 24 h (in vitro [2])?
The CC50 at 24 h was under 1 µM.

What about the CC50 at 72 h (in vitro [3]) of the same compound?
Its CC50 at 72 h is under 1 µM.

What about the EC50 (DENV-2) of the same compound?
Its EC50 is under 0.1 µM.

And the EC50 (SARS-CoV-2)?
Its EC50 is under 0.1 µM.

And the CC50 (in vitro [4])?
Its CC50 is 1 to 10 µM.

What about the CC50 (in vitro [6]) of the same compound?
Its CC50 is under 1 µM.

What about the EC50 (HCoV-OC43) of the same compound?
Its EC50 is under 0.1 µM.

And the EC50 (HCoV-229E)?
Its EC50 is 0.1 to 1 µM.

Which results are given for Nc1ncnc2c1ccn2[C@@H]1O[C@@](CO)(CF)[C@@H](O)[C@H]1O [Example 20, (2R,3S,4R,5R)-5-(4-amino-7H-pyrrolo[2,3-d]pyrimidin-7-yl)-2-(fluoromethyl)-2-(hydroxymethyl)tetrahydrofuran-3,4-diol]?
CC50 (in vitro [1]): > 99 µM; EC50 (HCMV): > 10 µM; EC50 (HRV 16): > 10 µM; EC50 (RSV A2): > 10 µM; EC50 (HRV 14): > 10 µM; CC50 (Cytotoxicity, HFF): > 99 µM; CC50 at 24 h (in vitro [2]): 10 to 99 µM; CC50 at 72 h (in vitro [3]): > 99 µM; EC50 (DENV-2): > 10 µM; EC50 (SARS-CoV-2): > 10 µM; CC50 (in vitro [4]): 10 to 99 µM; EC50 (CHIKV): > 10 µM

For O=c1[nH]cnc2c1c(F)cn2[C@@H]1O[C@](F)(CO)[C@@H](O)[C@H]1O [Example 21, 5-fluoro-7-((2R,3R,4S,5S)-5-fluoro-3,4-dihydroxy-5-(hydroxymethyl)tetrahydrofuran-2-yl)-3,7-dihydro-4H-pyrrolo[2,3-d]pyrimidin-4-one], which EC50 (YFV) is on record?
The EC50 was over 10 µM.

And the CC50 (in vitro [5])?
Its CC50 is over 99 µM.

What about the EC50 (ZIKV) of the same compound?
Its EC50 is over 10 µM.

And the CC50 (in vitro [1])?
The CC50 was over 99 µM.

And the EC50 (HRV 16)?
The EC50 was over 10 µM.

What about the EC50 (RSV A2) of the same compound?
Its EC50 is over 10 µM.

What about the EC50 (HRV 14) of the same compound?
Its EC50 is over 10 µM.

What about the CC50 at 24 h (in vitro [2]) of the same compound?
The CC50 at 24 h was over 99 µM.

What about the CC50 at 72 h (in vitro [3]) of the same compound?
Its CC50 at 72 h is over 99 µM.

And the EC50 (DENV-2)?
The EC50 was over 10 µM.

What about the EC50 (SARS-CoV-2) of the same compound?
The EC50 was over 10 µM.

What about the CC50 (in vitro [4]) of the same compound?
The CC50 was over 99 µM.

And the CC50 (in vitro [6])?
Its CC50 is over 99 µM.

And the EC50 (HCoV-OC43)?
Its EC50 is over 10 µM.

And the EC50 (HCoV-229E)?
Its EC50 is over 10 µM.
